Data as given in article doi:10.1101/469072v1 (biorxiv, 2018).
Where two headings read alike, the source gives them in different places.

Legend:
TbHK1 [1] = target: T1, TbHK1 (Trypanosoma brucei, UniProt Q38C42); assay: enzyme inhibition assay; type: biochemical
T1 sequence (Q38C42 1-471): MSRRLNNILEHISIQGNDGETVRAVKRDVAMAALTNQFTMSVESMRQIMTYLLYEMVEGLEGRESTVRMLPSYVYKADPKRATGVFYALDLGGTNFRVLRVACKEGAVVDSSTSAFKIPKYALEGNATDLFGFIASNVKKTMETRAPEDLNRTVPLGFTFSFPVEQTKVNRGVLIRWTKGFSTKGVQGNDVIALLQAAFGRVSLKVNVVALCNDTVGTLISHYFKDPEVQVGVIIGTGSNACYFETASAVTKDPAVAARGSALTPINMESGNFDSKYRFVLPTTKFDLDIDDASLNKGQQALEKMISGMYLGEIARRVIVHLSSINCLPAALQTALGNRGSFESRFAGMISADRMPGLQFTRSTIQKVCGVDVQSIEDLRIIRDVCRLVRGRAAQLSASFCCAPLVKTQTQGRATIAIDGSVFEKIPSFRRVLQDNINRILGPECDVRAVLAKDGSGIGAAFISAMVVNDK

NfGlck [2] = assay: coupled glucokinase assay, absorbance at […] nm; type: biochemical, Naegleria fowleri; conditions: pH 7.4, MgCl2
HsGlck [3] = target: T2, HsGlck (Homo sapiens, UniProt P35557); assay: enzyme inhibition assay; type: biochemical
T2 sequence (P35557 1-465): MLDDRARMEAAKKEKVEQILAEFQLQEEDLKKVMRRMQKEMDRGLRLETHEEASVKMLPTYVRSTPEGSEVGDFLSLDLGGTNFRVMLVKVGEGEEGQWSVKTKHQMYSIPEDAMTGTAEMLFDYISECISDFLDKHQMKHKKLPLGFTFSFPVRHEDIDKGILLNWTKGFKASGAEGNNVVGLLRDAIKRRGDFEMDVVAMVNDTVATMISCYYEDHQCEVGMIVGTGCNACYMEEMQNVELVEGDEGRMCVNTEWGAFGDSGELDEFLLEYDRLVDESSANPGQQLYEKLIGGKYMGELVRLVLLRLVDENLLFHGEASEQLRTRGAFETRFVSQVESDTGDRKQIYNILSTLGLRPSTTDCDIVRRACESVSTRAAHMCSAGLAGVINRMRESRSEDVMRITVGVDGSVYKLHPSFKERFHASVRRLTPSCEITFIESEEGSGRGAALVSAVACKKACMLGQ

TbHK1 [4] = target: T1, TbHK1; conditions: read-out: TbHK1 IC50; inhibitor
HsGlck [5] = target: T2, HsGlck; assay: biochemical
NfGlck [6] = assay: coupled glucokinase assay, absorbance at […] nm; type: biochemical, Naegleria fowleri
PfHK = target: T3, PfHK (Plasmodium falciparum, UniProt Q02155); assay: enzyme inhibition assay; type: biochemical
T3 sequence (Q02155 1-493): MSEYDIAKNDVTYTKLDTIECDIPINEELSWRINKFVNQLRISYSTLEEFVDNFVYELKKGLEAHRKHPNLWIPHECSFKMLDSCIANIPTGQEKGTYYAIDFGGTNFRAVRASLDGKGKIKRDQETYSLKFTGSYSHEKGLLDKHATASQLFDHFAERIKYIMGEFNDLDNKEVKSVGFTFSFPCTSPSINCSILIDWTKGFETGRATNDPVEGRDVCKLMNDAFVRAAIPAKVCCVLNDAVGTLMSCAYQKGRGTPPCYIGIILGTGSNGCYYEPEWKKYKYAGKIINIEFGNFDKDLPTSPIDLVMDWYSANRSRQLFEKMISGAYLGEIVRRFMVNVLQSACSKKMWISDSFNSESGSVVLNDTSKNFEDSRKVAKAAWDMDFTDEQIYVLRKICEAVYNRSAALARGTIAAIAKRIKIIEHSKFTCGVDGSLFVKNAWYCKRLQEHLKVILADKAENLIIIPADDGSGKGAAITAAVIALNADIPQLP

NfGlck [7] = assay: coupled glucokinase assay, absorbance at […] nm; type: biochemical, Naegleria fowleri; conditions: read-out: apparent Km, MgCl2
[8] = mixed inhibitor with respect to ATP

Row | Structure (SMILES) | IC50 (TbHK1 [1]) [µM] | IC50 (NfGlck [2]) [µM] | IC50 (HsGlck [3]) [µM] | further results
1 | CC(C)(C)c1ccc(C(=O)Nc2cc(Cl)c(-c3ccc(F)c(Cl)c3)cc2C(=O)O)cc1 [compound 12, SID162211073] | > 10 | 5.9 ± 0.26 | > 10 | –
2 | COc1cccc(-c2cc(C(=O)O)c(NC(=O)c3ccc(C(C)(C)C)cc3)cc2Cl)c1 [compound 14, SID162211075] | 3.9 ± 0.65 | > 10 | – | –
3 | CC(C)(C)c1ccc(C(=O)Nc2cc(Cl)c(-c3ccc(C(=O)O)cc3)cc2C(=O)O)cc1 [SID162211072] | – | – | – | IC50 (TbHK1 [4]): 3.5 µM; IC50 (HsGlck [5]): > 10 µM
4 | CC(C)(C)c1ccc(C(=O)Nc2cc(Cl)c(-c3ccc(O)cc3)cc2C(=O)O)cc1 [compound 16, SID162211079] | 3.1 ± 0.17 | > 10 | > 10 | –
5 | CC(C)(C)c1ccc(C(=O)Nc2cc(Cl)c(-c3cccc(F)c3)cc2C(=O)O)cc1 [compound 9, SID162211078] | > 10 | > 10 | > 10 | –
6 | CC(C)(C)c1ccc(C(=O)Nc2cc(Cl)c(-c3ccccc3O)cc2C(=O)O)cc1 [compound 17, SID162211085] | 1.2 ± 0.1 | > 10 | > 10 | –
7 | Cc1ccccc1-c1cc(C(=O)O)c(NC(=O)c2ccc(C(C)(C)C)cc2)cc1Cl [compound 18, SID162211086] | > 10 | > 10 | > 10 | –
8 | Nc1ncnc2c1ncn2[C@@H]1O[C@H](COP(=O)(O)OP(=O)(O)O)[C@@H](O)[C@H]1O [ADP] | – | – | – | Ki (NfGlck [6]): 116 ± 7 µM
9 | NC(N)=Nc1ccc(-c2ccc(-c3ccc(N=C(N)N)c(Cl)c3)o2)cc1Cl [compound 2, 2-[2-chloro-4-[5-[3-chloro-4-(diaminomethylideneamino)phenyl]furan-2-yl]phenyl]guanidine] | 1.3 ± 0.43 | – | 2.58 ± 0.53 | IC50 (PfHK): 0.16 ± 0.06 µM; IC50 (NfGlck [2]; [8]): 0.7 ± 0.09 µM
10 | CC(C)(C)c1ccc(C(=O)Nc2cc(Cl)c(C3CC3)cc2C(=O)O)cc1 [compound 6, SID162211071] | 6.7 ± 0.38 | > 10 | > 10 | –
11 | COc1ccccc1-c1cc(C(=O)O)c(NC(=O)c2ccc(C(C)(C)C)cc2)cc1Cl [compound 15, SID162211076] | 9.3 ± 0.55 | > 10 | > 10 | –
12 | CC(C)(C)c1ccc(C(=O)Nc2cc(Cl)c(-c3cccc(Cl)c3)cc2C(=O)O)cc1 [compound 11, SID162211084] | > 10 | 6.5 ± 0.61 | > 10 | –
13 | Nc1ncnc2c1ncn2[C@@H]1O[C@H](COP(=O)(O)OP(=O)(O)OP(=O)(O)O)[C@@H](O)[C@H]1O [ATP] | – | – | – | Km (NfGlck [7]; co-substrate glucose): 142 ± 9.9 µM
14 | CC(C)(C)c1ccc(C(=O)Nc2cc(Cl)c(-c3ccccc3F)cc2C(=O)O)cc1 [compound 10, SID162211083] | 6.7 ± 1 | > 10 | > 10 | –
15 | O=c1c2ccccc2sn1-c1ccccc1 [compound 4, Ebsulfur] | – | > 10 | – | –
16 | O=c1c2ccccc2[se]n1-c1ccccc1 [compound 3, 2-phenyl-1,2-benzisoselenazol-3(2H)-one] | – | 0.88 ± 0.06 | – | –
17 | NC(N)=Nc1ccc(-c2ccc(-c3ccc(N=C(N)N)cc3Cl)o2)c(Cl)c1 [compound 1, 2-[3-chloro-4-[5-[2-chloro-4-(diaminomethylideneamino)phenyl]furan-2-yl]phenyl]guanidine] | 2.9 ± 1.13 | – | > 10 | IC50 (PfHK): 0.78 ± 0.17 µM; IC50 (NfGlck [2]; [8]): 2.02 ± 0.31 µM
18 | CC(C)(C)c1ccc(C(=O)Nc2cc(Cl)c(-c3cccnc3)cc2C(=O)O)cc1 [compound 7, SID162211077] | > 10 | > 10 | > 10 | –
19 | N[C@H]1C(O)O[C@H](CO)[C@@H](O)[C@@H]1O (stereo partly shown) [glucosamine] | – | – | – | Ki (NfGlck [6]; competitive inhibitor of glucose): 186 ± 20.6 µM
20 | CC(C)(C)c1ccc(C(=O)Nc2cc(Cl)c(-c3cccc([N+](=O)[O-])c3)cc2C(=O)O)cc1 [SID162211082] | – | – | – | IC50 (TbHK1 [4]): > 10 µM; IC50 (HsGlck [5]): > 10 µM
21 | CC(C)(C)c1ccc(C(=O)Nc2cc(Cl)c(-c3ccccc3)cc2C(=O)O)cc1 [compound 8, SID144241590] | 0.28 | > 10 | > 10 | IC50 (PfHK): > 10 µM
22 | CC(C)(C)c1ccc(C(=O)Nc2cc(Cl)c(-c3ccc(C(F)(F)F)cc3)cc2C(=O)O)cc1 [SID162211070] | – | – | – | IC50 (TbHK1 [4]): > 10 µM; IC50 (HsGlck [5]): > 10 µM
23 | CC(C)(C)c1ccc(C(=O)Nc2cc(Cl)c(-c3ccc(Cl)c(Cl)c3)cc2C(=O)O)cc1 [compound 13, SID162211080] | > 10 | 2.9 ± 0.32 | > 10 | –
24 | OC[C@H]1OC(O)[C@H](O)[C@@H](O)[C@@H]1O (stereo partly shown) [glucose] | – | – | – | Km (NfGlck [7]; co-substrate ATP): 42.5 ± 7.3 µM
25 | CC(C)(C)c1ccc(C(=O)Nc2cc(Cl)c(-c3ccc(OC(F)(F)F)cc3)cc2C(=O)O)cc1 [SID162211074] | – | – | – | IC50 (TbHK1 [4]): > 10 µM; IC50 (HsGlck [5]): > 10 µM
